Assay [1] relates to AD and WT mouse brain sections. The assay is described as follows: Overlay binding of peptide-coated silver nanoparticles on frozen mouse brain sections. The text has this:
CASPRLSKC recognizes the AD hippocampus in tissue section overlay assay. Silver nanoparticles were coated with the CASPRLSKC peptide or a control peptide and used to overlay brain sections from AD and normal mice. Silver staining was used to visualize binding and nuclei were stained with nuclear fast red. The CASPRLSKC nanoparticles bind to elongated structures that may represent nerve fibers. These structures are not present in the normal brain.
Binding of DAG conjugated silver nanoparticles on frozen brain sections from AD or WT animals in overlay binding assay was also tested. […] This binding is restricted to the hippocampal region CA1 and the dentate gyms. Frozen coronal sections from AD and WT mice were used for overlay experiments with DAG-AgNPs. Silver staining was used to visualize binding and nuclei were stained with nuclear fast red.
Silver nanoparticles (AgNPs) with PEG coating and peptide functionality were prepared as reported previously with some modifications (Braun et al., Nature materials 13, 904-911 (2014)). AgNPs of ˜35 nm diameter were synthesized by citrate acid reduction of silver nitrate in solution. First, AgNO3 (450 mg) dissolved in 2.5 L water was stirred and heated to a boil and 50 mL water containing trisodium citrate dihydrate (500 mg, Sigma) was added. After 30 min the solution was cooled to room temperature. The resulting optical density at 405 nm was ˜10. […]

Assay [2] concerns human iPS cell-derived endothelial cells (ECs) from an AD patient. As to the kind of experiment: AgNP binding to hiPSC-derived brain endothelial cells. The class given is cell-based. The following applies: for Binding to AD patient iPS cell-derived endothelial cells: AD patient vs normal donor cells. The text has this: Human iPS cell-derived from an AD patient and from a normal individual were differentiated into endothelial cells and the cultured cells were used in an overlay assay with DAG-coated and control AgNP.
The details of human induced pluripotent stem cells (hiPSCs) derived from Alzheimer disease patients with APP duplication, and non-demented control individuals, are described previously (Israel et al., Nature 482, 216-220 (2012)). These hiPSCs were extensively characterized and have been established as an excellent human model for AD. An additional AD hiPSC line generated from dermal fibroblasts from an individual harboring a Presenilinl (PSEN1) mutation (Coriell Institute, Cat #AG06840) was used to further validate the results from the APP lines. hiPSCs were routinely maintained on mouse embryonic fibroblast as described before (Lin et al., Nat Methods 6, 805-808 (2009); Talantova et al., Proc Natl Acad Sci USA 110, E2518-2527 (2013)). Brain microvascular endothelial cells differentiation of hiPSCs was performed using a previously described protocol (Lippmann et al., Nature biotechnology 30, 783-791 (2012), with minor modifications. Briefly, feeder-free cultures of hiPSCs were allowed to spontaneously differentiate in the absence of bFGF for 5-7 days, and then transferred to Endothelial cell (EC) medium composed of human Endothelial Serum-Free Medium™ (Invitrogen) supplemented with 20 ng/ml bFGF and 1% platelet-poor plasma-derived bovine serum (PDS; Biomedical Technologies). After 1-2 days the cells were dissociated with dispase (2 mg/ml) and were plated on 12 well plates coated with a mixture of collagen IV (400 μg/ml) and fibronectin (100 μg/ml). Cells were then cultured in EC medium until they reached confluence, after which they were split and expanded to near 100% purity. BBB-type EC identity was confirmed by flow cytometry or double immunoreactivity to the hallmark efflux transporter p-glycoprotein and other EC markers (CD31, GLUT-1, PECAM, Occludin, and Claudin-5). Furthermore, the capability of these cells to make functional tight junctions and polarized efflux activity was validated using a dual chamber efflux transport assay as described before.
(§1) Cell binding experiments on U251 cells and hiPSCs were with done using peptide conjugated AgNP. U251 cells were cultured in a 96-well plate. The cells were blocked with 200 μl of 10% FCS in HBSS (Hanks' Balanced Salt Solution from Gibco) for 30 min at 37° C. Following that, DAG-AgNPs (0.5 nM concentration diluted in HBSS) alone or in the presence of free non-labeled peptide (200 μM) were incubated on the cells for 1 hour at 37° C. After washing the unbound AgNP with HBSS three times, the plates were imaged with fluorescent microscopy by looking at intrinsic emission from the FAM tag on the peptide. hiPSCs were cultured in 48 well plate and similar protocol as described above was followed, with the exception that AgNP concentration for incubation was kept at 0.15 nM. Nanoparticle binding was quantified from fluorescence micrographs using ImageJ™ software.

In assay [3] the test system is human astrocytoma U251 cells. The assay is described as follows: AgNP binding to U251 cells. The class given is cell-based. On the procedure:
FIG. 7 is a graphical representation showing quantity of DAG-coated silver nanoparticles (DAG-AgNPs) binding to human astrocytoma U251 cells. Cultured U251 cells were incubated with DAG-AgNPs alone, in the presence of free non-labeled control peptide, or an excess of free, non-labeled DAG (both at 200 μM), for 1 hour at 37° C. Nanoparticle binding was quantified from fluorescence micrographs using ImageJ™ software. Scale bar, 20 μm.
as §1

A further assay relates to human AD brain sections. As to the kind of experiment: Ex vivo overlay binding to human AD brain sections. Conditions: overlay. On the procedure: PFA fixed sections were incubated in PBS for 10 minutes, followed by PBS-Triton-x-100 (0.2%) for 10 minutes. Sections were rinsed with PBST, mounted in a slide holder, and subsequently washed with PBS-T during 12 minutes. Slides were blocked with blocking buffer for 60 minutes at room temperature. Then, peptides were incubated at a concentration of 10 μg/mL dissolved in concentrated blocking buffer, for three hours at room temperature. Sections were then washed with three 4-minute washes of PBS-T, and subsequently fixed with PFA for 10 minutes, followed by three 3-minute washes with PBS-T. Sections were then incubated with primary antibody at 1/200 in diluted blocking buffer overnight at 4° C. Later, sections were washed with three 4-minute washes with PBS-T. Slides were then incubated with secondary antibody at 1/200 dilution in diluted blocking buffer for 30 minutes at room temperature, followed by three 4-minute washes of PBS-T. Sections were then counterstained with DAPI for 5 minutes, washed with PBS-T and mounted.
Postmortem human brain samples were obtained from the New York Brain Bank at Columbia University, New York. The patient was a person with a diagnosis of AD neuropathologic changes ([A3, B3, C3]). The normal brain tissue was obtained from BioChain Institute Inc. (Newark, Calif.). The donor was a person without any neurologic diagnosis on detailed neuropathologic evaluation. The Parkinson's disease brain tissue was obtained from UCSD Pathology bank. Frozen brain tissue was sectioned for immunohistochemistry and ex vivo overlay binding with FAM-peptides.

Entries after “also recorded” stand apart in the source; their conditions may differ. Where no end group is shown, it is not given here.

As to “DAG-AgNPs: DAG-coated silver nanoparticles with PEG coating, FAM-cys-x-DAG-NH2 attached (CDAGRKQKC-NH2; not fully specified (N-terminus); also: attached via extra Cys thiol to maleimide-PEG on silver nanoparticles)”, in assay [1] (frozen brain sections, overlay binding assay), the “Binding to AD brain sections compared to age-matched wild-type brain sections” value was “over 10 fold”. Moreover, the “Binding to hippocampal CA1 region in AD brains versus WT brains” value in assay [1] (frozen coronal sections, hippocampal CA1 region) was found to be 14 fold. Also, the “Inhibition of AgNP binding by free DAG peptide” value in assay [2] (200 μM free non-labeled DAG) was “inhibited by the presence of free DAG peptide”. For the same substance, the “Binding to AD patient iPS cell-derived endothelial cells” value in assay [2] was “bind to human iPS cell-derived endothelial cells (ECs) from an AD patient, but not to ECs derived from a normal donor; also recorded: binding to human IPS cell-derived endothelial cells (ECs) from an AD patient, but not to ECs derived from a normal donor”; in assay [2] (listed as DAG-AgNP), “high binding”. The “Binding to U251 cells” value in assay [3] (1 hour at 37° C.) is listed as “bound robustly to these cells, much more so than non-targeted nanoparticles”. Besides, the “Inhibition of binding to U251 cells by free DAG” value in assay [3] (excess free non-labeled DAG, 200 μM) is “inhibited by co-incubation with an excess of free, non-labeled DAG”. Also, the “Binding to human AD brain sections” value in the assay on human AD brain sections is reported as “bind to sections from an AD patient with sporadic AD”.

Values taken from patent publication US11571485B2, “Peptides and antibodies for detecting changes in alzheimer's disease brain and methods of use thereof” (Sanford Burnham Prebys Medical Discovery Institute, priority 2016, dated 2023).
